The subject of this experiment is T-47D cells. Briefly: Caspase cascade activation (N-(Ac-DEVD)-N′-ethoxycarbonyl-R110 fluorogenic substrate) in T-47D cells. For Caspase activity Ratio T-47D (24 hr): test concentration or dose not given here. For Caspase activity Ratio T-47D (48 hr): test concentration or dose not given here. Format: cell-based, Human. The note with it: T-47D; for Caspase activity Ratio T-47D (24 hr) / Caspase activity Ratio T-47D (48 hr): ratio of net RFU to control.

For the compound `COc1ccc(N(C)c2nc(C(=O)O)nc3ccccc23)cc1` [Example 118, 4-(N-(4-Methoxy-phenyl)-N-methylamino)quinazoline-2-carboxylic Acid], the “Caspase activity Ratio T-47D (24 hr)” value was found to be 1.0.
In the case of `Cc1nc(Nc2ccc(OC(C)C)cc2)c2ccccc2n1` [Example 80, (4-Isopropoxy-phenyl)-(2-methyl-quinazolin-4-yl)-amine], the “Caspase activity Ratio T-47D (24 hr)” value is recorded as 8.3.
Regarding `COc1cccc(Nc2nc(Cl)nc3ccccc23)c1OC` [Example 29, (2-Chloro-quinazolin-4-yl)-(2,3-dimethoxy-phenyl)-amine], for the setting “48 hr”, the “Caspase activity Ratio T-47D (48 hr)” value amounted to 1.0.
On to `CN(c1ccc(OC(F)(F)F)cc1)c1nc(Cl)nc2ccccc12` [Example 5, (2-Chloro-quinazolin-4-yl)-(4-trifluoromethoxy-phenyl)-methyl-amine], for which the “Caspase activity Ratio T-47D (24 hr)” value is listed as 10.3.
Regarding `COc1ccc(N(C)c2nc(CCl)nc3ccccc23)cc1` [Example 73, (2-Chloromethyl-quinazolin-4-yl)-(4-methoxy-phenyl)-methyl-amine], the “Caspase activity Ratio T-47D (24 hr)” value is reported as 6.2. Also, for the setting “48 hr”, the “Caspase activity Ratio T-47D (48 hr)” value came to 5.7.
Take `CCOC(=O)c1nc(N(C)c2ccc(OC)cc2)c2ccccc2n1` [Example 117, Ethyl 4-(N-(4-Methoxy-phenyl)-N-methylamino)quinazoline-2-carboxylate]: the “Caspase activity Ratio T-47D (24 hr)” value was 7.4.
Same read-out and setting: under `COc1ccc(Nc2nc(C)nc3ccccc23)cc1F` [Example 79, (3-Fluoro-4-methoxy-phenyl)-(2-methyl-quinazolin-4-yl)-amine] stands 0.7; under `Cc1nc(Nc2ccc(O)cc2)c2ccccc2n1` [Example 127, (4-hydroxy-phenyl)-(2-methyl-quinazolin-4-yl)-amine], 1.2; under `COc1ccc(N(c2nc(C)nc3ccccc23)C(F)F)cc1` [Example 139, Difluoromethyl-(4-methoxy-phenyl)-(2-methyl-quinazolin-4-yl)-amine], 5.6.
On the same count and under the same terms, under `COc1cccc(N(C)c2nc(Cl)nc3ccccc23)c1OC` [Example 39, (2-Chloro-quinazolin-4-yl)-(2,3-dimethoxy-phenyl)-methyl-amine] stands 4.5.
Turning to `[2H]c1c([2H])c(N(C)c2nc(C)nc3ccccc23)c([2H])c([2H])c1OC` [Example 108], the “Caspase activity Ratio T-47D (24 hr)” value stood at 4.8.
As for `COc1ccc(Nc2nc(C)nc3ccccc23)cn1` [Example 95, (2-Methyl-quinazolin-4-yl)-(6-methoxy-pyridin-3-yl)-amine], the “Caspase activity Ratio T-47D (24 hr)” value came to 1.0.
`COc1ccc(N(C)c2nc(Cl)nc3c(Cl)cccc23)cc1` [Example 89, (2,8-Dichloro-quinazolin-4-yl)-(4-methoxy-phenyl)-methyl-amine]: the “Caspase activity Ratio T-47D (48 hr)” value (48 hr) worked out at 7.8.
Regarding `COc1ccc(N(C)c2nc(C)nc3ccc(N)cc23)cc1` [Example 110, (6-Amino-2-methyl-quinazolin-4-yl)-(4-methoxy-phenyl)-methyl-amine], the “Caspase activity Ratio T-47D (24 hr)” value stood at 8.8.
Take `Cc1nc(N(C)c2ccc(N)cc2Br)c2ccccc2n1` [Example 104, (4-Amino-2-bromo-phenyl)-(2-methyl-quinazolin-4-yl)-methyl-amine]: the “Caspase activity Ratio T-47D (24 hr)” value is recorded as 8.6.
With `COc1ccc(N(C)c2nc(Cl)nc3[nH]cnc23)cc1` [Example 51, (2-Chloro-9H-purin-6-yl)-(4-methoxy-phenyl)-methyl-amine], the “Caspase activity Ratio T-47D (48 hr)” value (48 hr) was found to be 0.9.
Consider `Cc1nc(N(C)c2ccc([N+](=O)[O-])cc2)c2ccccc2n1` [Example 100, (2-Methyl-quinazolin-4-yl)-(4-nitro-phenyl)-methyl-amine], for which the “Caspase activity Ratio T-47D (24 hr)” value turned out to be 8.9.
On the same count and under the same terms, under `COc1ccc(N(C)c2nc(C)nc3cccc(OC)c23)cc1` [Example 91, (5-Methoxy-2-methyl-quinazolin-4-yl)-(4-methoxy-phenyl)-methyl-amine] stands 8.3.
The same measure, in the same setting: the value for `COc1ccc(N(C)c2nc(C)nc3nccnc23)cc1` [Example 140, (4-Methoxy-phenyl)-(2-methyl-pteridin-4-yl)-methyl-amine] was 7.0.
For the compound `COc1ccc(N(C)c2nc(NCCO)nc3cc(OC)c(OC)cc23)cc1` [Example 50, N^2-(2-Hydroxyethyl)-N^4-(4-methoxy-phenyl)-N^4-methyl-6,7-dimethoxyquinazoline-2,4-diamine], the “Caspase activity Ratio T-47D (48 hr)” value (48 hr) was 1.0.
Still for that read-out and setting: the value for `COc1ccc(CN(C)c2nc(Cl)nc3ccccc23)cc1` [Example 26, (2-Chloro-quinazolin-4-yl)-(4-methoxy-benzyl)-methyl-amine] was 15.7.
`COc1ccc(N(C)c2nc(SC)nc3ccccc23)cc1` [Example 120, (2-Methylthio-quinazolin-4-yl)-(4-methoxy-phenyl)-methyl-amine]: the “Caspase activity Ratio T-47D (24 hr)” value turned out to be 5.2.
Turning to `COc1ccc(N(C)c2nc(C)nc3ncccc23)cc1` [Example 92, (4-Methoxy-phenyl)-(2-methyl-pyrido[2,3-d]pyrimidin-4-yl)-methyl-amine], the “Caspase activity Ratio T-47D (24 hr)” value came out at 10.1.
For the compound `Clc1nc(Nc2ccncc2)c2ccccc2n1` [Example 27, (2-Chloro-quinazolin-4-yl)-pyridin-4-yl-amine], the “Caspase activity Ratio T-47D (48 hr)” value (48 hr) came to 1.0.
Same read-out and setting: the value for `COc1ccc(N(C)c2nc(Cl)nc3ccc(C)cc23)cc1` [Example 56, (2-Chloro-6-methyl-quinazolin-4-yl)-(4-methoxy-phenyl)-methyl-amine] was 4.9.
With `CN(c1ccccc1)c1nc(N(C)c2ccccc2)c2ccccc2n1` [Example 18, N^2,N^4-Dimethyl-N^2,N^4-diphenyl-quinazoline-2,4-diamine], the “Caspase activity Ratio T-47D (24 hr)” value is on record as 1.0. For the same compound, the “Caspase activity Ratio T-47D (48 hr)” value (48 hr) was determined as 1.0.
As to `CN(c1nc(Cl)nc2ccccc12)[C@H]1CC[C@H](C)CC1` [Example 133, (2-Chloro-quinazolin-4-yl)-(trans-4-methylcyclohexyl)-methyl-amine], the “Caspase activity Ratio T-47D (24 hr)” value worked out at 1.2.
In the case of `CN(c1ccc(Cl)cc1)c1nc(N(C)c2ccc(Cl)cc2)c2ccccc2n1` [Example 19, N^2,N^4-Bis(4-chloro-phenyl)-N^2,N^4-dimethyl-quinazoline-2,4-diamine], the “Caspase activity Ratio T-47D (24 hr)” value is 1.0. For the same compound, the “Caspase activity Ratio T-47D (48 hr)” value (48 hr) was determined as 1.0.
Regarding `COc1ccc(N(C)c2nc(C)nc3cc(N)ccc23)cc1` [Example 113, (7-Amino-2-methyl-quinazolin-4-yl)-(4-methoxy-phenyl)-methyl-amine], the “Caspase activity Ratio T-47D (24 hr)” value is 3.7.
For `COc1ccc(N(c2nc(Cl)nc3ccccc23)C2CCCC2)cc1` [Example 45, (2-Chloro-quinazolin-4-yl)-cyclopentyl-(4-methoxy-phenyl)-amine], for the setting “48 hr”, the “Caspase activity Ratio T-47D (48 hr)” value stood at 1.0.
For `COc1ccc(N(C)c2nc(N)nc3ccccc23)cn1` [Example 49, N^4-(6-methoxypyridin-3-yl)-N^4-methyl-quinazoline-2,4-diamine], the “Caspase activity Ratio T-47D (24 hr)” value was determined as 7.5. In addition, the “Caspase activity Ratio T-47D (48 hr)” value (48 hr) is on record as 13.4.
`CCOc1ccc(N(C)c2nc(C)nc3ccccc23)cc1` [Example 107, (4-Ethoxy-phenyl)-(2-methyl-quinazolin-4-yl)-methyl-amine]: the “Caspase activity Ratio T-47D (24 hr)” value was found to be 5.2.
Regarding `COc1ccc(N(C)c2nc(N3CCOCC3)nc3ccccc23)cc1` [Example 15], the “Caspase activity Ratio T-47D (24 hr)” value was 5.7. Besides, the “Caspase activity Ratio T-47D (48 hr)” value (48 hr) is reported as 11.5.
For the compound `Cc1nc(N(C)c2ccc(N)cc2)c2ccccc2n1` [Example 101, (4-Amino-phenyl)-(2-methyl-quinazolin-4-yl)-methyl-amine], the “Caspase activity Ratio T-47D (24 hr)” value came out at 9.5.
Regarding `CCN(c1ccc(OC)cc1)c1nc(Cl)nc2ccccc12` [Example 40, (2-Chloro-quinazolin-4-yl)-ethyl-(4-methoxy-phenyl)-amine], the “Caspase activity Ratio T-47D (48 hr)” value (48 hr) is recorded as 6.1.
As to `CSc1nc(N(C)NC(=O)c2ccc(F)cc2)c2ccccc2n1` [4-fluoro-N′-methyl-N′-(2-(methylthio)quinazolin-4-yl)benzohydrazide], the “Ratio T-47D (48 hr)” value (48 hr, benzohydrazide analogs table) was found to be 13.8.
For the compound `COc1ccc(Nc2nc(C)nc3ccccc23)c(F)c1` [Example 96, (2-Fluoro-4-methoxy-phenyl)-(2-methyl-quinazolin-4-yl)-amine], the “Caspase activity Ratio T-47D (24 hr)” value is on record as 1.0.
Still for that read-out and setting: the value for `Cc1nc(N(C)c2ccc(OC(C)C)cc2)c2ccccc2n1` [Example 86, (4-Isopropoxy-phenyl)-(2-methyl-quinazolin-4-yl)-methyl-amine] was 6.2; that for `COc1ccc(N(C)c2nc(C)nc3cc([N+](=O)[O-])ccc23)cc1` [Example 112, (4-Methoxy-phenyl)-methyl-(2-methyl-7-nitro-quinazolin-4-yl)-amine] was 1.0.
On to `COc1ccc(N(C)c2nc(NC/C=C(\C)CCC=C(C)C)nc3cc(OC)c(OC)cc23)cc1` [Example 24, 6,7-Dimethoxy-N^2-(3,7-dimethyl-octa-2,6-dienyl)-N^4-(4-methoxy-phenyl)-N^4-methyl-quinazoline-2,4-diamine], for which the “Caspase activity Ratio T-47D (24 hr)” value worked out at 1.0. Moreover, under “48 hr”, the “Caspase activity Ratio T-47D (48 hr)” value was found to be 2.4.
Regarding `COc1ccc(N(C)c2nc(N(C)C)nc3ccccc23)cn1` [Example 128, (2-Dimethylamino-quinazolin-4-yl)-(6-methoxy-pyridin-3-yl)-methyl-amine], the “Caspase activity Ratio T-47D (24 hr)” value is recorded as 10.
For `CCOc1ccc(Nc2nc(Cl)nc3ccccc23)cc1` [Example 94, (2-Chloro-quinazolin-4-yl)-(4-ethoxy-phenyl)-amine], the “Caspase activity Ratio T-47D (48 hr)” value (48 hr) amounted to 1.0.
Turning to `CCc1ccc(N(C)c2nc(C)nc3ccccc23)cc1` [Example 87, (4-Ethyl-phenyl)-(2-methyl-quinazolin-4-yl)-methyl-amine], the “Caspase activity Ratio T-47D (24 hr)” value worked out at 6.3.
Still for that read-out and setting: the value for `COc1ccc(N(c2nc(Cl)nc3ccccc23)C2CCCCC2)cc1` [Example 38, (2-Chloro-quinazolin-4-yl)-cyclohexyl-(4-methoxy-phenyl)-amine] was 3.4.

Values taken from patent US7618975B2, “4-arylamino-quinazolines and analogs as activators of caspases and inducers of apoptosis and the use thereof” (Myriad Pharmaceuticals, Inc., priority 2003, dated 2009).
